Experimental data: BindingDB's records for PubMed 9190866 (Smithkline Beecham Pharmaceuticals, 1997)
Where a SMILES comes first, the peptide text is derived from it. [ ]: non-standard residue; d: D form. NMeF = CN[C@@H](Cc1ccccc1)C(=O)O

Legend:
Neuromedin-K receptor = target: T1, Neuromedin-K receptor (Homo sapiens, UniProt P29371)
T1 sequence (P29371 whole entry): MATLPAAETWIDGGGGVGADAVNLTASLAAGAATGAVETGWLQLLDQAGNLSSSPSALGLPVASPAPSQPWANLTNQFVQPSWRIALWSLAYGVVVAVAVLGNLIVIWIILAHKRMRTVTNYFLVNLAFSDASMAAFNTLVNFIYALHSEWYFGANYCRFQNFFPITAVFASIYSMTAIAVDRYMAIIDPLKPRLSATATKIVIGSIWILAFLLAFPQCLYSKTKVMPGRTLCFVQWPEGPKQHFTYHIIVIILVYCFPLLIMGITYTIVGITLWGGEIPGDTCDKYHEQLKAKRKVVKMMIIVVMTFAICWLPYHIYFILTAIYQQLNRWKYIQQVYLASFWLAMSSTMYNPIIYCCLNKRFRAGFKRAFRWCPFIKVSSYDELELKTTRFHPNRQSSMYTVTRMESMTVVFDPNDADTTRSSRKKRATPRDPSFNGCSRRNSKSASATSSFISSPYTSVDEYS

Substance-P receptor = Substance-P receptor (Homo sapiens, UniProt P25103)
Sequence of Substance-P receptor (P25103 whole entry): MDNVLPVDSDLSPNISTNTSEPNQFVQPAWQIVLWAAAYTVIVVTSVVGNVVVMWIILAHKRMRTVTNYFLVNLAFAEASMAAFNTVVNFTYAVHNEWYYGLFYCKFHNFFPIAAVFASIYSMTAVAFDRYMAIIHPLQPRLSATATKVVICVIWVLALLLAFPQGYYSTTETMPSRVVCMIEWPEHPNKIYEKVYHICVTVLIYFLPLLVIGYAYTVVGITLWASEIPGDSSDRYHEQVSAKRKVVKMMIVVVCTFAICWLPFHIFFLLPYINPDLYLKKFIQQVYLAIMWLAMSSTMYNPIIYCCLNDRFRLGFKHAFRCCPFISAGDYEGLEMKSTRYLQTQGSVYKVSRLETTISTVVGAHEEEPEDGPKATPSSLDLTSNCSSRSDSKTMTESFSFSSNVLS

Substance-K receptor = target: T2, Substance-K receptor (Homo sapiens, UniProt P21452)
T2 sequence (P21452 whole entry): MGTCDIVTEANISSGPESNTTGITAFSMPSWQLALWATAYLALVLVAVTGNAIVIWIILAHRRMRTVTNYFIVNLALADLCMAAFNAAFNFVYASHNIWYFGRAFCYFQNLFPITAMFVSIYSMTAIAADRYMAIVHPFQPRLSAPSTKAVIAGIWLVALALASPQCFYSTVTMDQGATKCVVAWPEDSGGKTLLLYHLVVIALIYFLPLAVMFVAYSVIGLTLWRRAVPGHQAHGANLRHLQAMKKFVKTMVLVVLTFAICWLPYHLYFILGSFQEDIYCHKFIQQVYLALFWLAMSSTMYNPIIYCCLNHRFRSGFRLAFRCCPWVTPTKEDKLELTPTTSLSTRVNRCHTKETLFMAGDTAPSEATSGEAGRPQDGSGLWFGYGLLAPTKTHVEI

| Compound | Ki (Neuromedin-K receptor) | Ki (Substance-P receptor) | Ki (Substance-K receptor) |
| --- | --- | --- | --- |
| CSCC[C@H](NC(=O)[C@H](CC(C)C)NC(=O)CNC(=O)[C@H](Cc1ccccc1)N(C)C(=O)[C@H](Cc1ccccc1)NC(=O)[C@H](Cc1ccccc1)NC(=O)[C@H](CC(=O)O)NC(=O)[C@H](Cc1cnc[nH]1)NC(=O)[C@H](CCSC)NC(=O)[C@@H](N)CC(=O)O)C(N)=O [NKB [MePhe7]] (H-DMHDFF[NMeF]GLM-NH2) | 0.31 nM | > 10000 nM |  |
| COc1ccccc1CN[C@H]1CCCN[C@H]1c1ccccc1 [(+/-)(2-Methoxy-benzyl)-(2-phenyl-piperidin-3-yl)-amine] | > 10000 nM |  | > 10000 nM |
| CC(=O)NC1(c2ccccc2)CCN(CCC(CN(C)C(=O)c2ccccc2)c2ccc(Cl)c(Cl)c2)CC1 (stereo not drawn) [SR 48968] | 707 nM | 454 nM | 0.23 nM |
| CSCC[C@H](NC(=O)[C@H](CC(C)C)NC(=O)CNC(=O)[C@@H](NC(=O)[C@H](Cc1ccccc1)NC(=O)[C@H](Cc1ccccc1)NC(=O)[C@H](CC(=O)O)NC(=O)[C@H](Cc1c[nH]cn1)NC(=O)[C@H](CCSC)NC(=O)[C@@H](N)CC(=O)O)C(C)C)C(N)=O [NSC_5311312] |  |  | 16.5 nM |
